Measurements reported in the supplement of paper PMC10331698.
± gives the standard deviation of the averaged measurements.

Legend:
Experiment in all cases: level (log10 ratio to DMSO vehicle control); higher = higher biomarker level / cell amount than vehicle control
Conditions in all cases: in DMSO
Methotrexate = compound: CN(Cc1cnc2nc(N)nc(N)c2n1)c1ccc(C(=O)N[C@@H](CCC(=O)O)C(=O)O)cc1 [Methotrexate]
Description: (§1)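 BioMAP Diversity Plus panel of 12 human primary cell co-culture systems (3C, 4H, LPS, SAg, BT, BF4T, BE3C, CASM3C, HDF3CGF, KF3CT, MyoF, Mphg). Compounds were added 1 h before stimulation and left for 24 h (MyoF 48 h; BT 72 h for soluble read-outs or 6 d for IgG). Biomarkers were read by ELISA, cytotoxicity by SRB, PBMC viability and proliferation by Alamar Blue. Each well value was divided by the mean of 8 DMSO control wells on the same plate and log10 transformed; duplicate blinded samples were tested at 4 concentrations.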

[1] = compound: Cc1ccc(S(=O)(=O)OCC(F)(F)C(F)(F)C(F)(F)C(F)(F)C(F)(F)C(F)F)cc1 [1H,1H,7H-Perfluoroheptyl 4-methylbenzenesulfonate]
Description: as §1

[2] = compound: FC(F)(F)COC(OCC(F)(F)F)OCC(F)(F)F [tris(Trifluoroethoxy)methane]
Description: as §1

Tetrafluorosuccinic acid = compound: O=C(O)C(F)(F)C(F)(F)C(=O)O [Tetrafluorosuccinic acid]
Description: as §1

Perfluorooctanoic acid = compound: O=C(O)C(F)(F)C(F)(F)C(F)(F)C(F)(F)C(F)(F)C(F)(F)C(F)(F)F [Perfluorooctanoic acid]
Description: as §1

Perfluoropinacol = compound: OC(C(F)(F)F)(C(F)(F)F)C(O)(C(F)(F)F)C(F)(F)F [Perfluoropinacol]
Description: as §1

Row | Test System | level (log10) (Methotrexate; 1500 nM) | level (log10) (Methotrexate; 4400 nM) | level (log10) (Methotrexate; 13000 nM) | level (log10) (Methotrexate; 40000 nM) | level (log10) ([1]; 6700 nM) | level (log10) ([1]; 20000 nM) | level (log10) ([1]; 60000 nM) | level (log10) ([2]; 6700 nM) | level (log10) ([2]; 20000 nM) | level (log10) ([2]; 60000 nM) | level (log10) (Tetrafluorosuccinic acid; 6700 nM) | level (log10) (Tetrafluorosuccinic acid; 20000 nM) | level (log10) (Tetrafluorosuccinic acid; 60000 nM) | level (log10) (Perfluorooctanoic acid; 6700 nM) | level (log10) (Perfluorooctanoic acid; 20000 nM) | level (log10) (Perfluorooctanoic acid; 60000 nM) | level (log10) (Perfluoropinacol; 6700 nM) | level (log10) (Perfluoropinacol; 20000 nM)
1 | lMphg:CD62E/E-Selectin | -0.009 ± 0.0099 | -0.0265 ± 0.028 | -0.0135 ± 0.019 | -0.011 ± 0.033 | -0.0225 ± 0.0064 | 0.022 ± 0.0014 | 0.0635 ± 0.019 | 0.023 ± 0.082 | -0.0245 ± 0.076 | -0.0085 ± 0.076 | -0.0075 ± 0.032 | 0.0085 ± 0.011 | 0.032 ± 0.013 | -0.007 ± 0.025 | 0.013 | 0.052 ± 0.017 | 0.0515 ± 0.013 | -0.139 ± 0.018
2 | CASM3C:CD87/uPAR | 0.0385 ± 0.037 | 0.033 ± 0.023 | 0.0585 ± 0.015 | 0.04 ± 0.048 | -0.03 ± 0.024 | -0.02 ± 0.016 | -0.004 ± 0.0099 | -0.0095 ± 0.018 | -0.007 ± 0.023 | -0.021 ± 0.0085 | -0.01 ± 0.021 | -0.024 ± 0.013 | -0.0185 ± 0.0021 | -0.049 ± 0.047 | -0.021 ± 0.082 | -0.0035 ± 0.067 | -0.0245 ± 0.015 | -0.107 ± 0.018
3 | KF3CT:CXCL9/MIG | 0.001 ± 0.0028 | 0.002 ± 0.016 | -0.0005 ± 0.0021 | 0.001 ± 0.0014 | -0.005 ± 0.014 | -0.0025 ± 0.012 | -0.008 ± 0.0057 | 0.0215 ± 0.032 | 0.006 ± 0.027 | 0.0175 ± 0.015 | -0.011 ± 0.014 | -0.011 ± 0.0099 | -0.017 ± 0.0014 | 0.006 ± 0.016 | 0.006 ± 0.016 | 0.01 ± 0.016 | 0.002 ± 0.0028 | -0.004 ± 0.0071
4 | CASM3C:HLA-DR | 0.0795 ± 0.0021 | -0.004 ± 0.068 | -0.079 ± 0.013 | 0.0375 ± 0.015 | -0.009 ± 0.0028 | -0.021 ± 0.0014 | -0.002 ± 0.0071 | -0.0115 ± 0.0064 | -0.007 | -0.0135 ± 0.023 | -0.005 ± 0.0099 | -0.0145 ± 0.013 | 0.0015 ± 0.0064 | 0.0045 ± 0.015 | -0.0045 ± 0.0021 | -0.0045 ± 0.043 | -0.0885 ± 0.042 | -0.207
5 | CASM3C:SRB | 0.001 | -0.0095 ± 0.0064 | -0.0055 ± 0.0035 | -0.0105 ± 0.011 | 0.002 ± 0.0014 | -0.0055 ± 0.0078 | -0.0125 ± 0.0035 | -0.0005 ± 0.011 | -0.0065 ± 0.013 | -0.0095 ± 0.013 | -0.012 ± 0.0028 | -0.005 ± 0.0014 | -0.0105 ± 0.005 | -0.005 ± 0.0042 | 0.0005 ± 0.00071 | 0.0095 ± 0.00071 | -0.02 ± 0.0099 | -0.061 ± 0.0057
6 | KF3CT:uPA | -0.0115 ± 0.0021 | -0.0195 ± 0.00071 | -0.031 ± 0.057 | -0.045 ± 0.059 | 0.006 ± 0.021 | -0.036 ± 0.023 | -0.0335 ± 0.022 | -0.0005 ± 0.043 | -0.011 ± 0.018 | -0.014 ± 0.023 | -0.012 ± 0.0071 | 0.0025 ± 0.0064 | -0.0285 ± 0.00071 | 0.0095 ± 0.0021 | 0.012 ± 0.0042 | 0.013 ± 0.017 | 0.0065 ± 0.035 | 0.019 ± 0.021
7 | MyoF:CXCL8/IL-8 | 0.0055 ± 0.028 | 0.0135 ± 0.016 | -0.0035 ± 0.033 | 0.0105 ± 0.022 | -0.0065 ± 0.0078 | -0.162 ± 0.022 | -0.115 ± 0.025 | -0.0155 ± 0.035 | -0.0125 ± 0.0078 | 0.0195 ± 0.015 | -0.013 ± 0.0099 | -0.019 ± 0.014 | 0.006 ± 0.025 | 0.022 ± 0.0028 | 0.0725 ± 0.026 | 0.078 ± 0.02 | 0.0295 ± 0.005 | 0.0265 ± 0.012
8 | CASM3C:CD106/VCAM-1 | -0.022 ± 0.05 | 0.016 ± 0.0014 | 0.009 ± 0.0028 | -0.002 ± 0.027 | 0.001 ± 0.0028 | -0.011 ± 0.0014 | 0.0135 ± 0.005 | -0.0095 ± 0.005 | -0.02 ± 0.0014 | -0.025 ± 0.0057 | 0.0015 ± 0.0035 | -0.008 ± 0.027 | -0.0045 ± 0.0064 | -0.033 ± 0.011 | -0.0165 ± 0.00071 | 0.019 ± 0.017 | -0.028 ± 0.0042 | -0.0385 ± 0.015
9 | HDF3CGF:CXCL8/IL-8 | -0.0035 ± 0.011 | -0.0075 ± 0.0064 | 0.0145 ± 0.0035 | 0.004 ± 0.0085 | -0.0045 ± 0.011 | 0.0065 ± 0.0035 | 0.0095 ± 0.0021 | -0.003 ± 0.0028 | -0.0005 ± 0.005 | 0.002 ± 0.0099 | -0.01 ± 0.0085 | -0.004 ± 0.0085 | -0.0055 ± 0.0078 | 0.0015 ± 0.0021 | 0.002 ± 0.0014 | 0.015 ± 0.014 | 0.025 ± 0.0071 | 0.02 ± 0.0028
10 | 3C:CD54/ICAM-1 | 0.0065 ± 0.0064 | -0.0085 ± 0.005 | 0.0045 ± 0.013 | -0.002 ± 0.0085 | 0.0085 ± 0.0021 | -0.005 ± 0.0085 | -0.01 ± 0.02 | 0.004 ± 0.0042 | -0.0105 ± 0.0064 | -0.0145 ± 0.00071 | -0.0015 ± 0.0092 | -0.016 ± 0.011 | 0.001 ± 0.0028 | -0.0145 ± 0.0035 | -0.007 ± 0.0042 | 0.0185 ± 0.0078 | 0.0055 ± 0.0021 | -0.0005 ± 0.021
11 | MyoF:Decorin | 0.0355 ± 0.037 | 0.0025 ± 0.026 | 0.0105 ± 0.016 | 0.0275 ± 0.0078 | 0.0065 ± 0.033 | 0.0045 ± 0.025 | 0.073 ± 0.05 | 0.017 ± 0.025 | 0.0235 ± 0.013 | 0.0245 ± 0.021 | -0.0055 ± 0.0021 | -0.006 ± 0.0057 | 0.014 ± 0.027 | 0.007 ± 0.018 | 0.02 ± 0.025 | 0.033 ± 0.055 | -0.041 ± 0.024 | -0.034 ± 0.025
12 | KF3CT:CXCL10/IP-10 | 0.0025 ± 0.018 | 0.0015 ± 0.011 | 0.004 ± 0.011 | -0.0005 ± 0.021 | -0.009 ± 0.014 | -0.0195 ± 0.0078 | -0.016 ± 0.0099 | 0.005 ± 0.0042 | -0.0045 ± 0.0064 | -0.0025 ± 0.005 | -0.006 ± 0.0028 | -0.0055 ± 0.0064 | -0.0075 ± 0.00071 | -0.006 ± 0.0042 | -0.01 ± 0.0042 | -0.0275 ± 0.0064 | 0.0025 ± 0.0035 | -0.0205 ± 0.0064
13 | HDF3CGF:PAI-I | -0.0705 ± 0.14 | -0.0725 ± 0.079 | -0.0445 ± 0.079 | -0.081 ± 0.16 | -0.004 ± 0.0042 | -0.009 ± 0.011 | 0.0065 ± 0.036 | -0.0115 ± 0.0021 | -0.025 ± 0.023 | 0.0175 ± 0.018 | -0.0295 ± 0.0078 | -0.009 ± 0.0014 | 0.003 ± 0.037 | 0.02 ± 0.0071 | 0.0425 ± 0.019 | 0.088 ± 0.065 | -0.0325 ± 0.012 | -0.117 ± 0.0021
14 | MyoF:SRB | 0.012 ± 0.013 | 0.003 | 0.0125 ± 0.0064 | -0.0005 ± 0.005 | -0.004 ± 0.018 | -0.021 ± 0.0085 | -0.024 ± 0.0014 | -0.0045 ± 0.0035 | -0.001 ± 0.0014 | 0.005 ± 0.0042 | -0.0035 ± 0.0035 | -0.0135 ± 0.0021 | -0.01 ± 0.0014 | 0.0025 ± 0.0035 | 0.0065 ± 0.012 | -0.034 ± 0.0057 | -0.012 | -0.0445 ± 0.0021
15 | MyoF:CD106/VCAM-1 | 0.0165 ± 0.015 | -0.0045 ± 0.013 | 0.038 ± 0.024 | 0.0095 ± 0.0092 | 0.004 ± 0.0014 | 0.023 ± 0.0014 | 0.0135 ± 0.0021 | -0.021 ± 0.034 | -0.03 ± 0.028 | -0.034 ± 0.0057 | -0.0095 ± 0.016 | 0.0005 ± 0.019 | -0.015 ± 0.0085 | 0.0065 ± 0.011 | 0.004 ± 0.0028 | 0.0095 ± 0.00071 | -0.013 ± 0.011 | -0.042 ± 0.0085
16 | HDF3CGF:Proliferation 72hr | -0.0885 ± 0.042 | -0.076 ± 0.13 | -0.0515 ± 0.036 | -0.083 ± 0.05 | -0.031 ± 0.011 | 0.0195 ± 0.036 | -0.197 ± 0.11 | -0.038 ± 0.081 | 0.001 ± 0.038 | -0.006 ± 0.038 | -0.08 ± 0.076 | -0.135 ± 0.061 | -0.0935 ± 0.069 | 0.06 ± 0.041 | 0.15 ± 0.005 | 0.0875 ± 0.0078 | -0.183 ± 0.044 | -0.39 ± 0.05
